Experimental data from patent US20240067693A1, “POLYPEPTIDES AND USES THEREOF” (MEDIMMUNE LIMITED, priority 2020, published 2024).
Numbered stars: 1 amine (or outer) side, 2 acyl side, 3 side chain; on linkers, the order of the positions; unused ones are H or OH. Bridge positions count the residues as written; N and C are the ends. Square brackets hold non-standard residues; d marks the D form. Side chains are listed from the residue outwards. Peptide text beside a SMILES is read from it. * marks the point of attachment. C18 diacid = O=C(O)CCCCCCCCCCCCCCCCC(=O)*; γGlu = O=C(O)[C@H](CCC(=O)[*:2])N[*:1]; Aib = CC(C)(N)C(=O)O

Key:
[1] = target: T1, human amylin receptor (calcitonin receptor co-expressed with receptor activity modifying protein, RAMP3) (hAMYR3) (Homo sapiens, UniProt O60896+P30988); experiment: cAMP production in 1321N1 cells with stable recombinant expression of human amylin receptor (hAMYR3); type: cell-based; conditions: for Ratio (selectivity hAMYR vs hCTR, ratio of EC50 values at the two receptors): EC50 hCTR / EC50 hAMYR3; for EC50: cAMP, 1321N1 cells, assay buffer with 0.1% BSA, read-out: EC50 (pM) hAMYR3
T1 construct: expressed in transfected cells
T1 sequence (P30988 25-474): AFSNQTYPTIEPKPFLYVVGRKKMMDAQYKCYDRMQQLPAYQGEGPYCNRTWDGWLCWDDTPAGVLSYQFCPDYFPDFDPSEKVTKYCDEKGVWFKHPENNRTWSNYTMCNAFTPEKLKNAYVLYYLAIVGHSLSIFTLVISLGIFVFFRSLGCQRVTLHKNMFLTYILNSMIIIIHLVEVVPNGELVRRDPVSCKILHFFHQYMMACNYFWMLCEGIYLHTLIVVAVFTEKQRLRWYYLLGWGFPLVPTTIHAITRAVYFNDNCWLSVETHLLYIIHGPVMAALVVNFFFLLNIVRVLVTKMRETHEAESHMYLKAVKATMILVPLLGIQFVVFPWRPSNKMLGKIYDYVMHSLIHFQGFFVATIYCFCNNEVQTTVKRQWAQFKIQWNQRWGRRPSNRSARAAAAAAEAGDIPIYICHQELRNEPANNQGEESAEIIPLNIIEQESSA
T1 sequence (O60896 24-148 partner): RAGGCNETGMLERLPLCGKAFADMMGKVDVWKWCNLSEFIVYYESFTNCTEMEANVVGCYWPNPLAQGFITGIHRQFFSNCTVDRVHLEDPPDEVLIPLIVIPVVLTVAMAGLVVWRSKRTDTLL
Summary of the method: (§1)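 Thawed cells in HBSS/0.1% BSA/25 mM HEPES pH 7.4 with 0.5 mM IBMX were incubated with peptides 30 min at room temperature; cAMP read by HTRF. EC50 from 4-parameter fit of % activation relative to maximal amylin or calcitonin effect.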

[2] = target: T2, human calcitonin receptor (hCTR) (Homo sapiens, UniProt P30988); experiment: cAMP production in 1321N1 cells with stable recombinant expression of human calcitonin receptor (hCTR); type: cell-based; conditions: cAMP, 1321N1 cells, assay buffer with 0.1% BSA; read-out: EC50 (pM) hCTR
T2 construct: expressed in transfected cells
T2 sequence (P30988 25-474): T1 sequence (P30988 25-474)
Summary of the method: as §1

Row | SMILES | Ratio (selectivity hAMYR vs hCTR, ratio of EC50 values at the two receptors) [1] | EC50 [1] | EC50 [2]
1 | CC[C@H](C)[C@H](NC(=O)[C@@H]1CCCN1C(=O)CNC(=O)[C@H](Cc1ccccc1)NC(=O)[C@H](CC(N)=O)NC(=O)C(C)(C)NC(=O)[C@H](CO)NC(=O)[C@H](CO)NC(=O)[C@H](Cc1c[nH]cn1)NC(=O)[C@@H](NC(=O)[C@H](CC(C)C)NC(=O)[C@H](Cc1ccccc1)NC(=O)[C@H](CC(N)=O)NC(=O)[C@H](C)NC(=O)[C@H](CC(C)C)NC(=O)[C@H](CCCNC(=N)N)NC(=O)[C@H](CCC(N)=O)NC(=O)[C@@H](NC(=O)[C@H](C)NC(=O)[C@@H]1CSSC[C@H](NC(=O)[C@@H](N)CCCCNC(=O)CC[C@H](NC(=O)CCCCCCCCCCCCCCCCC(=O)O)C(=O)O)C(=O)N[C@@H](CC(N)=O)C(=O)N[C@@H]([C@@H](C)O)C(=O)N[C@@H](C)C(=O)N[C@@H]([C@@H](C)O)C(=O)N1)[C@@H](C)O)C(C)C)C(=O)N[C@@H](CC(C)C)C(=O)N1CCC[C@H]1C(=O)N1CCC[C@H]1C(=O)N[C@H](C(=O)N[C@@H](CCCNC(=N)N)C(=O)N[C@H](C(=O)NCC(=O)N[C@@H](CO)C(=O)N[C@@H](CC(N)=O)C(=O)N[C@H](C(=O)N[C@@H](Cc1ccc(O)cc1)C(N)=O)[C@@H](C)O)C(C)C)[C@@H](C)O [Peptide 63, K(γE-C18diacid)[CNTATC]ATQRLANFLVHSS(Aib)NFGPILPPTRVGSNTY-amide] (H-K([γGlu-C18 diacid])CNTATCATQRLANFLVHSS[Aib]NFGPILPPTRVGSNTY-NH2; disulfide 2-7; N-terminus assumed) | 5 | 76 pM | 375 pM
2 | CC[C@H](C)[C@H](NC(=O)[C@@H]1CCCN1C(=O)CNC(=O)[C@H](Cc1ccccc1)NC(=O)[C@H](CC(N)=O)NC(=O)C(C)(C)NC(=O)[C@H](CO)NC(=O)[C@H](CO)NC(=O)[C@H](Cc1c[nH]cn1)NC(=O)[C@@H](NC(=O)[C@H](CC(C)C)NC(=O)[C@H](Cc1ccccc1)NC(=O)[C@H](CC(N)=O)NC(=O)[C@H](C)NC(=O)[C@H](CC(C)C)NC(=O)[C@H](CCCNC(=N)N)NC(=O)[C@H](CCC(N)=O)NC(=O)[C@@H](NC(=O)[C@H](C)NC(=O)[C@@H]1CSSC[C@H](NC(=O)[C@@H](N)CCCCNC(=O)CC[C@H](NC(=O)CC[C@H](NC(=O)CCCCCCCCCCCCCCCCC(=O)O)C(=O)O)C(=O)O)C(=O)N[C@@H](CC(N)=O)C(=O)N[C@@H]([C@@H](C)O)C(=O)N[C@@H](C)C(=O)N[C@@H]([C@@H](C)O)C(=O)N1)[C@@H](C)O)C(C)C)C(=O)N[C@@H](CC(C)C)C(=O)N1CCC[C@H]1C(=O)N1CCC[C@H]1C(=O)N[C@H](C(=O)N[C@@H](CCCNC(=N)N)C(=O)N[C@H](C(=O)NCC(=O)N[C@@H](CO)C(=O)N[C@@H](CC(N)=O)C(=O)N[C@H](C(=O)N[C@@H](Cc1ccc(O)cc1)C(N)=O)[C@@H](C)O)C(C)C)[C@@H](C)O [Peptide 67, K(γE-γE-C18diacid)[CNTATC]ATQRLANFLVHSS(Aib)NFGPILPPTRVGSNTY-amide] (H-K([γGlu-γGlu-C18 diacid])CNTATCATQRLANFLVHSS[Aib]NFGPILPPTRVGSNTY-NH2; disulfide 2-7; N-terminus assumed) | 30 | 132 pM | 4010 pM
3 | CC[C@H](C)[C@H](NC(=O)[C@@H]1CCCN1C(=O)CNC(=O)[C@H](Cc1ccccc1)NC(=O)[C@H](CC(N)=O)NC(=O)C(C)(C)NC(=O)[C@H](CO)NC(=O)[C@H](CO)NC(=O)[C@H](Cc1c[nH]cn1)NC(=O)[C@@H](NC(=O)[C@H](CC(C)C)NC(=O)[C@H](Cc1ccccc1)NC(=O)[C@H](CC(N)=O)NC(=O)[C@H](C)NC(=O)[C@H](CC(C)C)NC(=O)[C@H](CCCNC(=N)N)NC(=O)[C@H](CCC(N)=O)NC(=O)[C@@H](NC(=O)[C@H](C)NC(=O)[C@@H]1CSSC[C@H](NC(=O)CC[C@H](NC(=O)CCCCCCCCCCCCCCCCC(=O)O)C(=O)O)C(=O)N[C@@H](CC(N)=O)C(=O)N[C@@H]([C@@H](C)O)C(=O)N[C@@H](C)C(=O)N[C@@H]([C@@H](C)O)C(=O)N1)[C@@H](C)O)C(C)C)C(=O)N[C@@H](CC(C)C)C(=O)N1CCC[C@H]1C(=O)N1CCC[C@H]1C(=O)N[C@H](C(=O)N[C@@H](CCCNC(=N)N)C(=O)N[C@H](C(=O)NCC(=O)N[C@@H](CO)C(=O)N[C@@H](CC(N)=O)C(=O)N[C@H](C(=O)N[C@@H](Cc1ccc(O)cc1)C(N)=O)[C@@H](C)O)C(C)C)[C@@H](C)O [Peptide 68, (C18diacid-γE-[CNTATC]ATQRLANFLVHSS(Aib)NFGPILPPTRVGSNTY-amide] ({C18 diacid-γGlu}-CNTATCATQRLANFLVHSS[Aib]NFGPILPPTRVGSNTY-NH2; disulfide 1-6) | 9 | 192 pM | 1770 pM
4 | CC[C@H](C)[C@H](NC(=O)[C@@H]1CCCN1C(=O)CNC(=O)[C@H](Cc1ccccc1)NC(=O)[C@H](CC(N)=O)NC(=O)C(C)(C)NC(=O)[C@H](CO)NC(=O)[C@H](CO)NC(=O)[C@H](Cc1c[nH]cn1)NC(=O)[C@@H](NC(=O)[C@H](CC(C)C)NC(=O)[C@H](Cc1ccccc1)NC(=O)[C@H](CC(N)=O)NC(=O)[C@H](C)NC(=O)[C@H](CC(C)C)NC(=O)[C@H](CCCNC(=N)N)NC(=O)[C@H](CCC(N)=O)NC(=O)[C@@H](NC(=O)[C@H](C)NC(=O)[C@@H]1CSSC[C@H](NC(=O)[C@@H](N)CCCCNC(=O)CC[C@H](NC(=O)CC[C@H](NC(=O)CCCCCCCCCCCCCCCCC(=O)O)C(=O)O)C(=O)O)C(=O)N[C@@H](CC(N)=O)C(=O)N[C@@H]([C@@H](C)O)C(=O)N[C@@H](C)C(=O)N[C@@H]([C@@H](C)O)C(=O)N1)[C@@H](C)O)C(C)C)C(=O)N[C@@H](CC(C)C)C(=O)N1CCC[C@H]1C(=O)N1CCC[C@H]1C(=O)N[C@H](C(=O)N[C@@H](CC(N)=O)C(=O)N[C@H](C(=O)NCC(=O)N[C@@H](CO)C(=O)N[C@@H](CCCNC(=N)N)C(=O)N[C@H](C(=O)N[C@@H](Cc1ccc(O)cc1)C(N)=O)[C@@H](C)O)C(C)C)[C@@H](C)O [Peptide 72, K(γE-γE-C18diacid)[CNTATC]ATQRLANFLVHSS(Aib)NFGPILPPTNVGSRTY-amide] (H-K([γGlu-γGlu-C18 diacid])CNTATCATQRLANFLVHSS[Aib]NFGPILPPTNVGSRTY-NH2; disulfide 2-7; N-terminus assumed) | 18 | 227 pM | 4000 pM
5 | CC[C@H](C)[C@H](NC(=O)[C@@H]1CCCN1C(=O)CNC(=O)[C@H](Cc1ccccc1)NC(=O)[C@H](CC(N)=O)NC(=O)C(C)(C)NC(=O)[C@H](CO)NC(=O)[C@H](CO)NC(=O)[C@H](Cc1c[nH]cn1)NC(=O)[C@@H](NC(=O)[C@H](CC(C)C)NC(=O)[C@H](Cc1ccccc1)NC(=O)[C@H](CC(N)=O)NC(=O)[C@H](C)NC(=O)[C@H](CC(C)C)NC(=O)[C@H](CCCNC(=N)N)NC(=O)[C@H](CCC(N)=O)NC(=O)[C@@H](NC(=O)[C@H](C)NC(=O)[C@@H]1CSSC[C@H](NC(=O)[C@H](CCCCN)NC(=O)[C@@H](N)CCCCNC(=O)CC[C@H](NC(=O)CCCCCCCCCCCCCCCCC(=O)O)C(=O)O)C(=O)N[C@@H](CC(N)=O)C(=O)N[C@@H]([C@@H](C)O)C(=O)N[C@@H](C)C(=O)N[C@@H]([C@@H](C)O)C(=O)N1)[C@@H](C)O)C(C)C)C(=O)N[C@@H](CC(C)C)C(=O)N1CCC[C@H]1C(=O)N1CCC[C@H]1C(=O)N[C@H](C(=O)N[C@@H](CC(N)=O)C(=O)N[C@H](C(=O)NCC(=O)N[C@@H](CO)C(=O)N[C@@H](CCCNC(=N)N)C(=O)N[C@H](C(=O)N[C@@H](Cc1ccc(O)cc1)C(N)=O)[C@@H](C)O)C(C)C)[C@@H](C)O [Peptide 73, K(γE-C18diacid)K[CNTATC]ATQRLANFLVHSS(Aib)NFGPILPPTNVGSRTY-amide] (H-K([γGlu-C18 diacid])KCNTATCATQRLANFLVHSS[Aib]NFGPILPPTNVGSRTY-NH2; disulfide 3-8; N-terminus assumed) | 7 | 256 pM | 1820 pM
